# Patent US12172995B2, “Substituted indole and indazole compounds” (BRISTOL-MYERS SQUIBB COMPANY, priority 2018, dated 2024)
# What was measured:
# Assay type in all cases: cell-based
# human TLR7 = target: T1, human TLR7 (Homo sapiens, UniProt Q9NYK1); test: TLR7 inhibition reporter assay (HEK-Blue SEAP); conditions: HEK-Blue cells overexpressing human TLR7, stimulated with gardiquimod 7.5 μM, 22 hour incubation
# T1 construct: host or cells: HEK-Blue cells
# T1 sequence (Q9NYK1 27-1049): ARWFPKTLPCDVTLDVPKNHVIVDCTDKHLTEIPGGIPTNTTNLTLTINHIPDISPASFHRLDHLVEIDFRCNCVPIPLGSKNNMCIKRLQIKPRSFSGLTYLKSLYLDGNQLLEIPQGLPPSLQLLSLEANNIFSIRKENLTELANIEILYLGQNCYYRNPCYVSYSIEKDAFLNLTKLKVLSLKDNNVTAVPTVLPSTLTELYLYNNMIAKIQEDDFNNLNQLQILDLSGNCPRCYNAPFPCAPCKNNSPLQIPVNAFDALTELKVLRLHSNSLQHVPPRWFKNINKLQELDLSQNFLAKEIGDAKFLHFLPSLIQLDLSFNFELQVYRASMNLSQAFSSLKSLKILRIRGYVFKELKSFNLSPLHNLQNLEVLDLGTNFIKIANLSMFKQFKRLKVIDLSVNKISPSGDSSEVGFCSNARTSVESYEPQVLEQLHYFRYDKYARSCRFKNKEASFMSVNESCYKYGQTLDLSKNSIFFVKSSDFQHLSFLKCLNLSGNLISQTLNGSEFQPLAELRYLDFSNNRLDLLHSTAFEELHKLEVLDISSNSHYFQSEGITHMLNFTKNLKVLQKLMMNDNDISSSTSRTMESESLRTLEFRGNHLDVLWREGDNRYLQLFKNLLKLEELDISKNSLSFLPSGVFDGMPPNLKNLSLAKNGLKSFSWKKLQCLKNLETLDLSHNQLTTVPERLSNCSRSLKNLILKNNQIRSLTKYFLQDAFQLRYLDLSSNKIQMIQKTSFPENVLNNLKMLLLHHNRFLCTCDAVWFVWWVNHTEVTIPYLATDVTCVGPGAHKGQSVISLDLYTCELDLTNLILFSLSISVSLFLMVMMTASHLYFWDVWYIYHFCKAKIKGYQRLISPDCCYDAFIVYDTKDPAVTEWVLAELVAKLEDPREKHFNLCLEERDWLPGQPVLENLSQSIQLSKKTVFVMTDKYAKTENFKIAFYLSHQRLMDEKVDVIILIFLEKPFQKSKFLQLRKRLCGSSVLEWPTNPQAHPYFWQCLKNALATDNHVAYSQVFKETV
# In short: (§1)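 HEK-Blue cells overexpressing human TLR7, TLR8 or TLR9 with an NF-κB/AP-1-driven SEAP reporter were pre-treated 30 min at room temperature with compound (0.05 nM to 50 μM), then stimulated with gardiquimod 7.5 μM (TLR7), R848 15.9 μM (TLR8) or ODN2006 5 nM (TLR9). SEAP measured after 22 h at 37° C; inhibition normalized between agonist-plus-DMSO and reference-inhibitor wells.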
# human TLR8 = target: T2, human TLR8 (Homo sapiens, UniProt Q9NR97); test: TLR8 inhibition reporter assay (HEK-Blue SEAP); conditions: HEK-Blue cells overexpressing human TLR8, stimulated with R848 15.9 μM, 22 hour incubation
# T2 construct: host or cells: HEK-Blue cells
# T2 sequence (Q9NR97 27-1041): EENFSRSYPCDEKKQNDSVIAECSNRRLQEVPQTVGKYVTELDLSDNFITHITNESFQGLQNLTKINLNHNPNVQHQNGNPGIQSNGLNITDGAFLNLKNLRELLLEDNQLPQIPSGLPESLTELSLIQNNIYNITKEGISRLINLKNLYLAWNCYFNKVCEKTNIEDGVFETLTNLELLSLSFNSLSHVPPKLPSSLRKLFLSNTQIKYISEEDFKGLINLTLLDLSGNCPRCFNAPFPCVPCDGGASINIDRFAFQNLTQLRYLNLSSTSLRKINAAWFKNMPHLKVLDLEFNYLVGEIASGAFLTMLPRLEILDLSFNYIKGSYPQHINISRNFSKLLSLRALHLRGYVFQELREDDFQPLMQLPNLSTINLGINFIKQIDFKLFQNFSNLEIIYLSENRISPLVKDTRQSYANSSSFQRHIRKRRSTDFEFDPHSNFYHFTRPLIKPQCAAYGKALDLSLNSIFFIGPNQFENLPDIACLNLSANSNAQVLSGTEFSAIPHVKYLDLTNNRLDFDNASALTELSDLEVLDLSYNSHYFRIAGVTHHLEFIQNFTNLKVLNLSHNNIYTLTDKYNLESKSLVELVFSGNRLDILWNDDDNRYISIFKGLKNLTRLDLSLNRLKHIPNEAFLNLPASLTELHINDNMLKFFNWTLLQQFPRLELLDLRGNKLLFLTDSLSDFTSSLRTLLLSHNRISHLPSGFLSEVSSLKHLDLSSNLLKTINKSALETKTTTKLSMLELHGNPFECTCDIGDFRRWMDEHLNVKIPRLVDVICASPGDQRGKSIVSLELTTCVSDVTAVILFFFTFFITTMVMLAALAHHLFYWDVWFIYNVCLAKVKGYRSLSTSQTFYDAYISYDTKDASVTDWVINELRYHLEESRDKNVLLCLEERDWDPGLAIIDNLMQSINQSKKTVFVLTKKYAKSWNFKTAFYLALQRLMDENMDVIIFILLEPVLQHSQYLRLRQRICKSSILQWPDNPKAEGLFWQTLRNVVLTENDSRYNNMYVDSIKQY
# In short: as §1
# human TLR9 = target: T3, human TLR9 (Homo sapiens, UniProt Q9NR96); test: TLR9 inhibition reporter assay (HEK-Blue SEAP); conditions: HEK-Blue cells overexpressing human TLR9, stimulated with ODN2006 5 nM, 22 hour incubation
# T3 construct: host or cells: HEK-Blue cells
# T3 sequence (Q9NR96 26-1032): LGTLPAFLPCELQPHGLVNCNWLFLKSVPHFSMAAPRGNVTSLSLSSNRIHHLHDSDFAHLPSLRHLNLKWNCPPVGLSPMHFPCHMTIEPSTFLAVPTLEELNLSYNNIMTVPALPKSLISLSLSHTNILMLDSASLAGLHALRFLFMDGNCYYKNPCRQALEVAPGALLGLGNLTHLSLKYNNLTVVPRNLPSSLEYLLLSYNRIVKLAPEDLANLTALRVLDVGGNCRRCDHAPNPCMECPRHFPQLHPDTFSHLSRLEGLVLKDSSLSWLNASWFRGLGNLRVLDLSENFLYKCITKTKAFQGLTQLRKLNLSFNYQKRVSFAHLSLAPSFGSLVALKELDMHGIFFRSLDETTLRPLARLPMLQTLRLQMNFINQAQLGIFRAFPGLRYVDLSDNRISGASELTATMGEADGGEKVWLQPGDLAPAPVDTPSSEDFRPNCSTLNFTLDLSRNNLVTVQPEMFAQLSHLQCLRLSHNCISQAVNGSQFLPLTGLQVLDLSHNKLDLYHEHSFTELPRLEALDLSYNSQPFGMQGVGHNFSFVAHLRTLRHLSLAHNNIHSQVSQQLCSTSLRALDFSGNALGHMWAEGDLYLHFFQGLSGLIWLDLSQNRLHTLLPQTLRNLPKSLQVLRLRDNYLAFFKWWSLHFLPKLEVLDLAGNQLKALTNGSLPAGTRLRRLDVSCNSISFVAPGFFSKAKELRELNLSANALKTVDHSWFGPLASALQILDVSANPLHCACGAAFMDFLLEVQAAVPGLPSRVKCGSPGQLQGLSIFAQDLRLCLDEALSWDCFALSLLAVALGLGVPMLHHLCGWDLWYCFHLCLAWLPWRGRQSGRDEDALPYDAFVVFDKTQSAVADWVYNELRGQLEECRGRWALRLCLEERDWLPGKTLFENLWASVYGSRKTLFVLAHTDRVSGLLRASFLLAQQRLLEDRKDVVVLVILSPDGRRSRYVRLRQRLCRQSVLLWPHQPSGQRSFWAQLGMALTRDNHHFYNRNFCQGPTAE
# In short: as §1
IC50 (human TLR7) [nM],IC50 (human TLR8) [nM],IC50 (human TLR9) [nM],SMILES
0.9,0.1,6230,"Cc1cc(-c2cc3[nH]nc(C4CCC(N5CCC(F)C5)CC4)c3cc2C(C)C)cn2ncnc12 (stereo not drawn) [Example 163, 6-(3-(4-(3-fluoropyrrolidin-1-yl)cyclohexyl)-5-isopropyl-1H-indazol-6-yl)-8-methyl-[1,2,4] triazolo[1,5-a]pyridine]"
18.3,0.3,4440,"Cc1cc2c(C3CCC(N(C)C4COC4)CC3)n[nH]c2cc1-c1cc(C)c2ncnn2c1 (single isomer, unassigned) [Example 32, N-methyl-N-(4-(5-methyl-6-(8-methyl-[1,2,4]triazolo[1,5-a]pyridin-6-yl)-1H-indazol-3-yl)cyclohexyl)oxetan-3-amine]"
0.5,0.2,9850,"Cc1cc(-c2cc3[nH]nc(C4CCC(N5CC6(CCOC6)C5)CC4)c3cc2C(C)C)cn2ncnc12 (stereo not drawn) [Example 158, 2-(4-(5-isopropyl-6-(8-methyl-[1,2,4]triazolo[1,5-a]pyridin-6-yl)-1H-indazol-3-yl)cyclohexyl)-6-oxa-2-azaspiro[3.4]octane]"
5.8,21.8,1290,"COc1cc(-c2cc(C)c3ncnn3c2)cc2[nH]nc(C3CCNCC3)c12 [Example 86, 6-(4-methoxy-3-(piperidin-4-yl)-1H-indazol-6-yl)-8-methyl-[1,2,4]triazolo[1,5-a]pyridine]"
3,0.2,16000,"CCc1cc2c(C3CCC(NCC(=O)N(C)C)CC3)n[nH]c2cc1-c1cc(C)c2ncnn2c1 (stereo not drawn) [Example 96, 2-((4-(5-ethyl-6-(8-methyl-[1,2,4]triazolo[1,5-a]pyridin-6-yl)-1H-indazol-3-yl)cyclohexyl)amino)-N,N-dimethylacetamide]"
15.3,0.4,6740,"Cc1cc2c(C3CCC(NCCS(C)(=O)=O)CC3)n[nH]c2cc1-c1cc(C)c2ncnn2c1 (stereo not drawn) [Example 30, 4-(5-methyl-6-(8-methyl-[1,2,4]triazolo[1,5-a]pyridin-6-yl)-1H-indazol-3-yl)-N-(2-(methylsulfonyl)ethyl) cyclohexan-1-amine]"
3.2,16.4,21900,"Cc1cc(-c2cc3[nH]nc(N4CCNCC4)c3cc2C(C)C)cn2ncnc12 [Example 206, 6-(5-isopropyl-3-(piperazin-1-yl)-1H-indazol-6-yl)-8-methyl-[1,2,4]triazolo[1,5-a]pyridine]"
80.6,115,3430,"Cc1cc(-c2ccc3c(C4CCC(N(C)C)CC4)c[nH]c3c2)cn2ncnc12 (single isomer, unassigned) [Example 14, N,N-dimethyl-4-(6-(8-methyl-[1,2,4]triazolo[1,5-a]pyridin-6-yl)-1H-indol-3-yl)cyclohexan-1-amine]"
1.7,0.1,6910,"CCOC1CN(C2CCC(c3n[nH]c4cc(-c5cc(C)c6ncnn6c5)c(C(C)C)cc34)CC2)C1 (single isomer, unassigned) [Example 150, 6-(3-(4-(3-ethoxyazetidin-1-yl)cyclohexyl)-5-isopropyl-1H-indazol-6-yl)-8-methyl-[1,2,4]triazolo[1,5-a]pyridine]"
41,6.4,5270,"Cc1cc2c(C3CCCN(C(=O)CN(C)C)C3)n[nH]c2cc1-c1cc(C)c2ncnn2c1 (stereo not drawn) [Example 54, 2-(dimethylamino)-1-(3-(5-methyl-6-(8-methyl-[1,2,4]triazolo[1,5-a]pyridin-6-yl)-1H-indazol-3-yl)piperidin-1-yl)ethan-1-one]"
13.2,1.6,3730,"Cc1cc(-c2cc(C)c3ncnn3c2)cc2[nH]nc(OC3CCN(Cc4cn(C)nn4)CC3)c12 [Example 193, 8-methyl-6-(4-methyl-3-((1-((1-methyl-1H-1,2,3-triazol-4-yl)methyl)piperidin-4-yl)oxy)-1H-indazol-6-yl)-[1,2,4]triazolo[1,5-a]pyridine]"
17.7,0.8,3130,"CCCN1CCC(c2n[nH]c3cc(-c4cc(C)c5ncnn5c4)c(C)cc23)CC1 [Example 22, 8-methyl-6-(5-methyl-3-(1-propylpiperidin-4-yl)-1H-indazol-6-yl)-[1,2,4]triazolo[1,5-a]pyridine]"
1.5,0.3,20900,"Cc1cc(-c2cc3[nH]nc(C4CCN(CC(=O)N(C)C)CC4)c3cc2C(C)C)cn2ncnc12 [Example 112, 2-(4-(5-isopropyl-6-(8-methyl-[1,2,4]triazolo[1,5-a]pyridin-6-yl)-1H-indazol-3-yl)piperidin-1-yl)-N,N-dimethylacetamide]"
